Patent US20060153785A1, “Moisturizers comprising one or more of gamma-polyglutamic acid (gamma-PGA, H form), gamma-polyglutamates and gamma-polyglutamate hydrogels for use in cosmetic or personal care products” (priority 2005, published 2006)
Values belong to the molecule of their own block, whether it stands above or below them.

Key:
[1] = test system: inside skin surface of a test panelist's arm; test: Water retention on skin after skin vital moisture cream (capacitance, Skin Analysis SHP88); format: in vivo, human (panelists); conditions: 5% moisturizer in cream
[2] = test system: tyrosinase; test: Inhibition of tyrosinase activity (absorbency at 475 nm); format: biochemical; conditions: 1.0% sample
Description: Although the formation of black pigment melanin on skin is complicated, it is generally realized that tyrosine is oxidized to DOPA (Dihydroxy Phenyalanine) by the catalysis of tyrosinase from melansome of melanocyte. The DOPA is further oxidized and finally converted into colored melanin-protein complex. […] Determination of total absorbency at wavelength of 475 nm: To a 25 ml sample test tube, add 0.9 ml of 0.1M phosphate buffer solution (pH 6.8), 1 ml of γ-polyglutamate (Na^+ form) sample and 1 ml of 0.25 mg/ml tyrosine solution and mix well, then incubate at 37° C. for 10 minutes. […] Sample of the reaction solution is then taken for measuring the absorbency at 475 nm, and recorded as At. • b. Determination of the blank absorbance of tyrosinase solutuion: Replace 0.1 ml of buffer solution with tyrosinase solution, and repeat the same procedure in item (a), and record the absorbency at 475 nm as A1. • c. Replace 1 ml sample solution with buffer solution, and repeat the same procedure in item (a), and record the absorbance at 475 nm as Ab. • d. Determination of total blank absorbance of test solution: Replace 1 ml sample solution with buffer solution, and 0.1 ml of tyrosinase solution with buffer solution, and repeat the procedure in item (a), and record the absorbency at 475 nm as Ao. • e. […]

[3] = test system: outside skin surface of the arm of a test panelist; test: Moisture retention of skin after peeling off facial moisture mask (capacitance, SHP88); format: in vivo, human (panelists); conditions: 5.0% moisturizer in facial moisture mask; mask film peeled off after 15 minutes; 23° C., RH 65%
Description: The species and proportions of the ingredients contained in the exemplified facial moisture mask formulation are listed in Table 5.
The samples of 0.2 grams from experimental example 4 were taken and evenly spread over an area of 25 cm^2 on the outside skin surface of the arm of a test panelist, and the film formation time was closely observed and recorded (see Characteristic Properties of N-Carboxybutyl Chitosan. Carbohydr. Polym. 11:307-320, 1989, Muzzarelli, R. A. A. et al.) at 23° C. under an environment of relative humidity (RH) of 65%. A group of 10 panelists participated in this test. In a separate experiment, the mask film formed after 15 minutes was peeled off, then the […] of the skin was measured at 23° C. under an environment of relative humidity of 65% with a probe of the Skin Analysis SHP88 of Courage ^+Khazaka Electronic Gmbh, Germany. The moisture retention of the skin was immediately measured at 23° C. under an environment of relative humidity of 65% with a probe of the Skin Analysis SHP88, and expressed in unit of capacitance increase ratio, %.

Structure (SMILES): CC(O)CO (stereo not shown) [Propylene Glycol]
Capacitance Increase Ratio ([1]; time 0 min): 0% | Capacitance Increase Ratio ([1]; time 5 min): 105% | Capacitance Increase Ratio ([1]; time 10 min): 57% | Capacitance Increase Ratio ([1]; time 20 min): 51% | Capacitance Increase Ratio ([1]; time 40 min): 40% | Capacitance Increase Ratio ([1]; time 80 min): 38% | Capacitance Increase Ratio ([1]; time 120 min): 36%

Inhibition of Tyrosinase Activity [2]: 100.0%
Structure (SMILES): O=c1cc(CO)occ1O [Kojic Acid]

Structure (SMILES): CC(O)CCO (stereo not shown) [1,3-BG, 1,3-Butyl Glycol]
Capacitance Increase Ratio [3]: 73.2%

Inhibition of Tyrosinase Activity [2]: 99.4%
Structure (SMILES): O=C1O[C@H]([C@@H](O)CO)C(O)=C1O [Vitamin C]
